In US20220154156A1, “PROTEINS AND METHODS FOR DISRUPTING BACTERIAL COMMUNICATION” (REGENTS OF THE UNIVERSITY OF MINNESOTA, priority 2019, published 2022):
Like-named read-outs stand apart in the source and are kept apart here.

Experiments:
[1] = test system: Geobacillus caldoxylosilyticus lactonase GcL, wild type, SEQ ID NO: 1; settings: cited from earlier work
[2] = test system: Geobacillus caldoxylosilyticus GcL (SEQ ID NO: 1) variant GcL 14 (Q41P/S66A/S81A/T91S/R111K/F141/A144T/C147S/V1751/H178D/I182L/L183E/M244A/N245K); experiment: Lactonase assay of variant GcL 14; assay type: biochemical; settings: for catalytic proficiency compared with the wt enzyme: GcL 14 vs GcL wt
[3] = test system: Geobacillus caldoxylosilyticus GcL (SEQ ID NO: 1) variant GcL 4 (C147S/H178D/L183E/M244A); experiment: Lactonase assay of variant GcL 4; assay type: biochemical; settings: for catalytic proficiency compared with the wt enzyme: GcL 4 vs GcL wt
Procedure: (§1) Kinetic measurements. The determination of GcL catalytic efficiency was performed by using a microplate reader (Synergy HTX, BioTek, USA) and the software Gen5.1 over a range of substrates (FIG. 2). The reactions were operate in a 96-well plate at a path length of 5.8 mm for a 200 μl reaction volume at room temperature. The catalytic parameters were achieved by fitting the data to Michaelis-Menten equation with the Graph-Pad Prism 5 software. When, Vmax was not reached, the catalytic efficiency was determined by fitting the linear part of Michaelis-Menten plot to a linear regression using Graph-Pad Prism 5.
(§2) Lactonase assay. The AHL lactonolysis consisting in the opening of the lactone ring generates a proton, and leads to an acidification of the media. This property allowed the characterization of the lactonases by using a pH indicator assay. To perform the experiment 5 μl of enzyme were added to a solution containing 10 μl of substrates at various concentrations and 185 μl of lactonase buffer (2.5 mM Bicine pH 8.3, 150 mM NaCl, 0.2 mM CoCl2, 0.2 mM cresol purple, 0.5% DMSO). This assay was performed at 25° C. and the time course of the lactones hydrolysis was recorded at 577 nm. The characterization of the enzyme was proceeding against a large panel of AHLs: C4-AHL, C6-AHL, C8-AHL, C10-AHL, 3-oxo-C8-AHL and against γ-Butyrolactone, γ-Heptalactone, γ-Nonalactone, γ-Decanolactone, δ-Valerolactone, δ-Octanolactone, δ-Nonalactone, δ-Decalactone, ε-Caprolactone, ε-Decalactone, Whiskey lactone.
We determined the ability of these two variants to hydrolyze a wide range of lactones as substrates, using the assay described in the previous chapter. GcL 4 was assayed against substrates C4 AHIL, C8 AHIL, 3-oxo-C8 AHL, 3-oxo-C12 AHL, γ-Butyrolactone, γ-Nonalactone, γ-Decanolactone, δ-Valerolactone, δ-Octanolactone, δ-Decalactone, ε-Caprolactone, ε-Decalactone and Whiskey Lactone, while GcL […] was assayed against C4 AHL, C8 AHL, 3-oxo-C8 AHL, 3-oxo-C12 AHIL, γ-Butyrolactone, γ-Heptalactone, γ-Nonalactone, γ-Decanolactone, δ-Valerolactone, δ-Nonalactone, δ-Decalactone, ε-Caprolactone, ε-Decalactone and Whiskey Lactone (Table 6).

[4] = test system: Geobacillus caldoxylosilyticus lactonase GcL, wild type, SEQ ID NO: 1; experiment: Lactonase assay (pH indicator, cresol purple) of GcL wt; assay type: biochemical; settings: 25° C., pH 8.3; Table 4, substrates without asterisk
Procedure: as §1, §2

[5] = test system: corrosion tubercles on steel coupons; experiment: Biocorrosion of coated steel coupons in Duluth-Superior Harbor water, 8 weeks; parameters: concentration or dose not given beside the values; settings: silica gel coating, two months in DSH water
Procedure: The steel coupons were washed with soap water, lightly brushed for a few seconds with a test tube brush, and then rinsed with Milli-Q water to remove any loose material. Each coupon was designated with a unique number and weighed before being randomly assigned to a specific experimental treatment.
Each compound or enzyme was added to 5 ml of the silica gel matrix to develop different coating treatments. These coatings were applied by dipping coupons into the appropriate gel mixture for 1 minute, and then the coating on the coupon surface was air-dried at room temperature for 2 hours.
Six treatments and three controls were investigated for corrosion rate and changes in bacterial communities (Table 10). Each treatment or control contained three replicate steel coupons. After the triplicate steel coupons were coated with each biochemical, enzyme or bacterial treatment, they were incubated in experimental microcosms constructed from 10-gallon glass aquaria (Aqueon Glass, 50.8 cm×25.4 cm×30.5 cm) (FIG. 24). Each microcosm was equipped with an aquarium pump (Aquarium Systems Mini-Jet 404) to constantly circulate the water (˜2 L hr−1), and covered with a piece of acrylic with one corner cut out to allow gas exchange. The coupons were hold with plastic holders and immersed in water taken from the DSH for 8 weeks and then recovered for analyses.
The coupons in each treatment was photographed by the end of the experiment. Biocorrosion was evaluated by the number and coverage of corrosion tubercles, and also by imaging of coupon surfaces with an environmental scanning electron microscope (ESEM). The coupon images were captured with DSLR camera immediately after being removed from the harbor water, and then tubercle numbers and total area in digital images were measured using the analyze menu within ImageJ software (NIH, Bethesda, Md., USA). Surface roughness measurements were also made after the exposed coupons were cleaned with ASTM G1-90 iron and steel chemical cleaning procedure (2 min in 37% HCl, 50 g/L SnCl2). A Hitachi TM-3030 ESEM was used to view details of the cleaned coupon surface and the 3D-View software was used to generate surface roughness measurements (SRa). Statistics analysis (T-tests) of the tubercle numbers, coverage and surface roughness were performed using Microsoft Excel software.

[6] = Enzymatic characterization of SsoPox 6 and SsoPox 19; assay type: biochemical; settings: esters, lactones and phosphotriesters; compared with wt
Text: We determined the ability of these two variants to hydrolyze a wide range of substrates, including esters, lactones and phosphotriesters (FIG. 23).

[7] = Paraoxonase activity of SsoPox variants after incubation at 80° C.; assay type: physicochemical; settings: compared with wt enzyme and SsoPox W263I
[8] = Table 4, substrates marked *, Data from^17

Row | Molecule | Km ([2]; GcL 14, Table 6) [µM] | kcat ([2]; GcL 14, Table 6) [s⁻¹] | Km ([3]; GcL 4, Table 6) [µM] | kcat ([3]; GcL 4, Table 6) [s⁻¹] | Km [4] [µM] | kcat [4] [s⁻¹] | further results
1 | CCCCCC(=O)CC(=O)N[C@H]1CCOC1=O [3-oxo-C8-AHL] | 0.29 ± 0.08 | 76.00 ± 4.04 | 1.09 ± 0.28 | 76.4 ± 3.87 | – | – | Km [1, 8]: 2.19 ± 0.37 µM; kcat [1, 8]: 9.48 ± 0.35 s⁻¹
2 | CCCCCCCCCC(=O)CC(=O)N[C@H]1CCOC1=O [3-oxo-C12 AHL] | 0.5 ± 0.12 | 15.88 ± 0.45 | – | – | – | – | –
3 | CCCC(=O)N[C@H]1CCOC1=O [C4-AHL] | 0.92 ± 0.27 | 15.01 ± 0.61 | 0.75 ± 0.24 | 18.25 ± 0.85 | – | – | Km [1, 8]: 229 ± 57 µM; kcat [1, 8]: 19.06 ± 1.51 s⁻¹; Km ([1]; wt enzyme, C4 AHL marked * (ref 17) in Table 4): ~230 µM; Km ([2]; GcL 14): ~1 µM; Km ([3]; GcL 4): ~1 µM
4 | CCCCCC(=O)N[C@H]1CCOC1=O [C6-AHL] | – | – | – | – | – | – | Km [1, 8]: 7.97 ± 1.89 µM; kcat [1, 8]: 8.95 ± 0.48 s⁻¹
5 | CCCCCCCC(=O)N[C@H]1CCOC1=O [C8-AHL] | 1.32 ± 0.34 | 18.38 ± 0.86 | 0.81 ± 0.2 | – | 3.12 ± 0.75 | 1.29 ± 0.04 | –
6 | CCCCCCCCCC(=O)NC1CCOC1=O (stereo not drawn) [C10-AHL] | – | – | – | – | – | – | Km [1, 8]: 1.45 ± 0.47 µM; kcat [1, 8]: 5.48 ± 0.37 s⁻¹
7 | CCCCC1OC(=O)CC1C (stereo not drawn) [Whiskey lactone] | 14 ± 3.74 | 7.98 ± 0.63 | – | 8.4 ± 0.39 | 0.67 ± 0.21 | 9.34 ± 0.39 | catalytic proficiency compared with the wt enzyme [2]: similar; catalytic proficiency compared with the wt enzyme [3]: similar
8 | [Mg+2].[O-][O-] [magnesium peroxide] | – | – | – | – | – | – | reduction of the number (formation) of corrosion tubercles [5]: 36%
9 | O=C1CCCO1 [γ-Butyrolactone] | 5.9 ± 1.67 | 9.89 ± 0.75 | 1.99 ± 0.45 | 8.42 ± 0.42 | 21.1 ± 7.6 | 2.49 ± 0.15 | –
10 | CCCCCCC1CCC(=O)O1 (stereo not drawn) [γ-Decanolactone] | 0.32 ± 0.14 | 13.7 ± 0.73 | 1.31 ± 0.28 | 22.24 ± 1.10 | 7.14 ± 1.03 | 2.69 ± 0.11 | –
11 | CCCC1CCC(=O)O1 (stereo not drawn) [γ-Heptalactone] | 2.77 ± 0.53 | 20.95 ± 0.93 | – | – | 2.01 ± 0.71 | 1.77 ± 0.06 | –
12 | CCCCCC1CCC(=O)O1 (stereo not drawn) [γ-Nonalactone] | 9.09 ± 2.2 | 23.61 ± 1.40 | 2.54 ± 0.97 | 18.3 ± 0.90 | 11.6 ± 3.1 | 18.14 ± 0.9 | catalytic proficiency compared with the wt enzyme [2]: similar; catalytic proficiency compared with the wt enzyme [3]: similar
13 | CCCCCC1CCCC(=O)O1 (stereo not drawn) [δ-Decalactone] | 0.32 ± 0.14 | 13.7 ± 0.73 | 5.54 ± 0.13 | 10.28 ± 0.76 | 3.13 ± 0.9 | 4.1 ± 0.18 | catalytic proficiency compared with the wt enzyme [2]: similar; catalytic proficiency compared with the wt enzyme [3]: similar
14 | CCCCC1CCCC(=O)O1 (stereo not drawn) [δ-Nonalactone] | 9.09 ± 2.2 | 23.61 ± 1.40 | – | – | 8.05 ± 2.5 | 2.01 ± 0.14 | –
15 | CCCC1CCCC(=O)O1 (stereo not drawn) [δ-Octanolactone] | – | – | 1.92 ± 0.54 | 22.01 ± 1.17 | 18.3 ± 7 | 12.58 ± 0.85 | –
16 | O=C1CCCCO1 [δ-Valerolactone] | 1.12 ± 0.12 | 22.13 ± 0.41 | 3.13 ± 0.1 | 11.94 ± 1.03 | 5.67 ± 0.94 | 1.27 ± 0.03 | –
17 | O=C1CCCCCO1 [ε-Caprolactone] | 2.49 ± 0.67 | 23.74 ± 1.26 | 1.3 ± 0.49 | 12.63 ± 0.95 | 10.6 ± 3.2 | 8.79 ± 0.43 | –
18 | CCCCC1CCCCC(=O)O1 (stereo not drawn) [ε-Decalactone] | 7.98 ± 2.47 | 10.41 ± 0.85 | 1.41 ± 0.3 | 6.3 ± 0.29 | 1.05 ± 0.38 | 1.01 ± 0.04 | catalytic proficiency compared with the wt enzyme [2]: similar; catalytic proficiency compared with the wt enzyme [3]: similar
19 | SsoPox 6: SsoPox variant R2K/S10E/S13P/K14R/V91I/L107N, SEQ ID NO:12 (protein, SsoPox6 variant) MKIPLVGKDEIEPRDIGFTLIHEHLRVFSEAVRQQWPHLYNEDEEFRNAVNEVKRAMQFGVKTIVDPTVMGLGRDIRFMEKVVKATGINLIAGTGIYIYIDLPFYFNNRSIDEIADLFIHDIKEGIQGTLNKAGFVKIAADEPGITKDVEKVIRAAAIANKETKVPIITHSNAHNNTGLEQQRILTEEGVDPGKILIGHLGDTDNIDYIKKIADKGSFIGLDRYGLDLFLPVDKRNETTLRLIKDGYSDKIMISHDYCCTIDWGTAKPEYKPKLAPRWSITLIFEDTIPFLKRNGVNEEVIATIFKENPKKFFS | – | – | – | – | – | – | activity levels [6]: extremely similar to those of the wt enzyme; paraoxon hydrolysis after incubation of different times at 80° C. [7]: withstanding better the incubation at 80 °C than the wt enzyme and SsoPox W263I
